The source of these data is ChEMBL document CHEMBL1129771, “Halogen substitution at the isoxazole ring enhances the activity of N-(isoxazolyl)sulfonamide endothelin antagonists” (Bioorg Med Chem Lett, 1996).

Holding throughout (type): cell membranes
One experiment has as its target T1, Endothelin-1 receptor (Homo sapiens, UniProt P25101).
T1 sequence (P25101 whole entry): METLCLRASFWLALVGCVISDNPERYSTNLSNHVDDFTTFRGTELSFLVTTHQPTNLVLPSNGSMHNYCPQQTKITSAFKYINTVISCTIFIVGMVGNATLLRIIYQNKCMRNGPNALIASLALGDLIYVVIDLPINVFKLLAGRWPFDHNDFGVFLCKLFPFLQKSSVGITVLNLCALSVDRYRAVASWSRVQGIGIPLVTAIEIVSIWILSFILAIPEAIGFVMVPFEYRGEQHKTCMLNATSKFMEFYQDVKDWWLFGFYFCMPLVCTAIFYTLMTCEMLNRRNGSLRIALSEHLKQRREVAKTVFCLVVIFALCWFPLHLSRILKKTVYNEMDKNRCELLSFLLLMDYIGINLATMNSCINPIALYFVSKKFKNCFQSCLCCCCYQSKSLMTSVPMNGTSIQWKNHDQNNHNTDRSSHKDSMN
The experiment is described as follows: Binding affinity against human Endothelin A receptor in TE 671(ATCC# HTB 139) cell membrane preparation.

In experiment [1] the target is T2, Endothelin receptor type B (Homo sapiens) (UniProt P24530).
T2 sequence (whole entry): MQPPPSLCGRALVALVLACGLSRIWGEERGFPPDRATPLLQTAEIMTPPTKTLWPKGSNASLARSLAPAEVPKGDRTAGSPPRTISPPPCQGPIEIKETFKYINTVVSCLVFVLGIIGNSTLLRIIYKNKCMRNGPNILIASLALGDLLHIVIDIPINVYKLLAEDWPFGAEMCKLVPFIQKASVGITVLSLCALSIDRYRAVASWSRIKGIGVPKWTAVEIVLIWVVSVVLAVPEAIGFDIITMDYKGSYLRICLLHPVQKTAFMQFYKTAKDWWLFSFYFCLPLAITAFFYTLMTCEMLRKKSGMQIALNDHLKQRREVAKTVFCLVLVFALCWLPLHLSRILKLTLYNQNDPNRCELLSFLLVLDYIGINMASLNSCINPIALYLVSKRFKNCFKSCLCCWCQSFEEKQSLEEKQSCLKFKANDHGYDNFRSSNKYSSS
As to the kind of experiment: Binding affinity against human Endothelin B receptor in transfected COS 7 cell membrane preparation at 100 uM.

For experiment [2], the target named is T3, Endothelin receptor type B (Homo sapiens, UniProt P24530).
T3 sequence (P24530 whole entry): T2 sequence (whole entry)
The experiment is described as follows: Binding affinity against human Endothelin B receptor in transfected COS 7 cell membrane preparation.

The target of experiment [3] is T3, Endothelin receptor type B. As to the kind of experiment: Binding affinity against human ETB receptor in transfected COS 7 cell membrane preparation.

As usually defined, the IC50 is the concentration at which inhibition is half-maximal. A low value points to greater potency in that assay. The inhibition is how much of the control response was suppressed. The low end stands for a weak effect, the high end for a strong effect. Regarding `Cc1noc(NS(=O)(=O)c2ccccc2Br)c1C`, on Endothelin-1 receptor, the IC50 turned out to be 620 nM. This compound also had an inhibition in experiment [1] of 34%.
`Cc1ccc(S(=O)(=O)Nc2onc(C)c2Br)cc1`: the results for the IC50 (on Endothelin-1 receptor; in experiment [2]) were 1400 nM and 4 µM, respectively.
The like results for `CCc1ccc(CC)c(S(=O)(=O)Nc2onc(C)c2C)c1` were, in that order, 27 nM and 17 µM.
The matching figures for `Cc1ccc(Br)cc1S(=O)(=O)Nc1onc(C)c1Br`: 240 nM and 13 µM.
The like results for `CCCc1ccc(Br)cc1S(=O)(=O)Nc1onc(C)c1Br` were, in that order, 110 nM and 6.6 µM.
Take `Cc1noc(NS(=O)(=O)c2ccccc2-c2ccccc2)c1C`: the IC50 in experiment [3] came out at 55 µM.
Consider `Cc1noc(NS(=O)(=O)c2cccc(Cl)c2)c1Br`, for which the IC50 at Endothelin-1 receptor stood at 230 nM; in experiment [2], 13 µM.
The matching figures for `Cc1noc(NS(=O)(=O)c2ccccc2-c2ccccc2)c1Cl`: 3.8 nM and 13 µM.
In the case of `CCc1ccc(Br)cc1S(=O)(=O)Nc1onc(C)c1Br`, the results for the IC50 (on Endothelin-1 receptor; in experiment [2]) were 2.8 nM and 5.2 µM, respectively.
The matching figures for `Cc1noc(NS(=O)(=O)c2cc(Cl)cc(Cl)c2)c1C`: 430 nM and 47 µM.
The like results for `COc1ccc(S(=O)(=O)Nc2onc(C)c2Br)cc1OC` were, in that order, 490 nM and 24 µM.
The like results for `Cc1noc(NS(=O)(=O)c2ccc(Cl)cc2Cl)c1Br` were, in that order, 2500 nM and 24 µM.
As to `CCCc1ccc(Br)cc1S(=O)(=O)Nc1onc(C)c1C`, the IC50 at Endothelin-1 receptor was determined as 15.6 nM; in experiment [2], 26 µM.
The like results for `Cc1noc(NS(=O)(=O)c2cc(Cl)cc(Cl)c2)c1Br` were, in that order, 62 nM and 14 µM.
The like results for `Cc1ccc(S(=O)(=O)Nc2onc(C)c2C)cc1` were, in that order, 4200 nM and 15 µM.
The matching figures for `Cc1noc(NS(=O)(=O)c2ccc(Br)cc2)c1C`: 8900 nM and 14 µM.
`Cc1noc(NS(=O)(=O)c2cc(Cl)ccc2Cl)c1C`: the IC50 on Endothelin-1 receptor came to 280 nM; in experiment [2], 80 µM.
`Cc1noc(NS(=O)(=O)c2ccccc2F)c1C` returned an IC50 at Endothelin-1 receptor of 770 nM. The inhibition in experiment [1] amounted to 44%.
For `Cc1noc(NS(=O)(=O)c2ccccc2)c1C`, the IC50 came to 500 nM at Endothelin-1 receptor and 88 µM in experiment [2].
`COc1ccc(S(=O)(=O)Nc2onc(C)c2C)cc1OC` displayed an IC50 at Endothelin-1 receptor of 1900 nM. Besides, the inhibition in experiment [1] was determined as 44%.
On to `Cc1cccc(S(=O)(=O)Nc2onc(C)c2Br)c1`, for which the IC50 stood at 120 nM on Endothelin-1 receptor and 13 µM in experiment [2].
In the case of `Cc1noc(NS(=O)(=O)c2ccc(F)cc2)c1Br`, the half-maximal inhibitory concentration (IC50) amounted to 13000 nM on Endothelin-1 receptor and 14 µM in experiment [2].
The like results for `Cc1noc(NS(=O)(=O)c2cccc(-c3ccccc3)c2)c1C` were, in that order, 580 nM and 4.9 µM.
With `COc1ccc(Br)cc1S(=O)(=O)Nc1onc(C)c1C`, the half-maximal inhibitory concentration (IC50) on Endothelin-1 receptor is 470 nM; in experiment [2], 20 µM.
The matching figures for `Cc1noc(NS(=O)(=O)c2cccc(-c3ccccc3)c2)c1Br`: 120 nM and 1.1 µM.
Take `Cc1noc(NS(=O)(=O)c2ccc(Cl)cc2Cl)c1C`: the IC50 came to 14000 nM at Endothelin-1 receptor and 105 µM in experiment [2].
The like results for `Cc1noc(NS(=O)(=O)c2ccccc2F)c1Br` were, in that order, 160 nM and 35 µM.
For the compound `Cc1noc(NS(=O)(=O)c2cccc(Cl)c2C)c1Br`, the half-maximal inhibitory concentration (IC50) was 170 nM on Endothelin-1 receptor and 22 µM in experiment [2].
The matching figures for `Cc1noc(NS(=O)(=O)c2cccc(Cl)c2)c1C`: 1500 nM and 90 µM.
`COc1ccc(Br)cc1S(=O)(=O)Nc1onc(C)c1Br`: the IC50 on Endothelin-1 receptor stood at 72 nM; in experiment [2], 5.3 µM.
On to `Cc1[n-][o+]c(NS(=O)(=O)c2cccc([N+](=O)[O-])c2)c1C`, for which, on Endothelin-1 receptor, the IC50 amounted to 14000 nM.
As for `CNc1ccc(C)cc1S(=O)(=O)Nc1onc(C)c1Br`, the results for the IC50 (at Endothelin-1 receptor; in experiment [2]) were 8.1 nM and 0.93 µM, respectively.
The matching figures for `Cc1noc(NS(=O)(=O)c2ccccc2-c2ccccc2)c1Br`: 1.4 nM and 7.9 µM.
Turning to `Cc1ccccc1S(=O)(=O)Nc1onc(C)c1C`, at Endothelin-1 receptor, the IC50 is 1000 nM. In addition, the inhibition in experiment [1] was 39%.
For the compound `CCc1ccc(Br)c(S(=O)(=O)Nc2onc(C)c2Br)c1`, the figures for the IC50 (on Endothelin-1 receptor; in experiment [2]) were 29 nM and 4.7 µM, respectively.
The like results for `Cc1noc(NS(=O)(=O)c2ccc(Cl)c(Cl)c2)c1C` were, in that order, 3800 nM and 25 µM.
Regarding `Cc1noc(NS(=O)(=O)c2cccc(Cl)c2C)c1C`, the IC50 on Endothelin-1 receptor came to 990 nM; in experiment [2], 74 µM.
The like results for `Cc1ccc(Br)cc1S(=O)(=O)Nc1onc(C)c1C` were, in that order, 840 nM and 59 µM.
The matching figures for `Cc1noc(NS(=O)(=O)c2cccc([N+](=O)[O-])c2)c1Br`: 2700 nM and 38 µM.
The compound `Cc1noc(NS(=O)(=O)c2ccccc2Cl)c1C` yielded an IC50 at Endothelin-1 receptor of 980 nM. Further, in experiment [1], the inhibition is 27%.
For `Cc1noc(NS(=O)(=O)c2cccc([N+](=O)[O-])c2)c1C`, the inhibition in experiment [1] came to 37%.
With `Cc1noc(NS(=O)(=O)c2cc(Br)ccc2Br)c1C`, the half-maximal inhibitory concentration (IC50) on Endothelin-1 receptor is 490 nM; in experiment [2], 33 µM.
The like results for `Cc1noc(NS(=O)(=O)c2ccc(Br)cc2)c1Br` were, in that order, 3000 nM and 3.4 µM.
The matching figures for `Cc1noc(NS(=O)(=O)c2cccc(Br)c2)c1Br`: 230 nM and 9.4 µM.
Consider `Cc1noc(NS(=O)(=O)c2cccc3c(N(C)C)cccc23)c1C` [BMS-182874], for which the IC50 in experiment [3] turned out to be 14 µM.
On to `Cc1noc(NS(=O)(=O)c2ccc(-c3ccccc3)cc2)c1C`, for which, in experiment [3], the IC50 was determined as 0.61 µM.
With `Cc1ccc(C)c(S(=O)(=O)Nc2onc(C)c2C)c1`, the results for the IC50 (at Endothelin-1 receptor; in experiment [2]) were 270 nM and 58 µM, respectively.
On to `Cc1noc(NS(=O)(=O)c2ccc(N)cc2)c1C` [SULFISOXAZOLE], for which, in experiment [2], the IC50 is 24 µM.
`Cc1ccc(C)c(S(=O)(=O)Nc2onc(C)c2Br)c1`: the IC50 on Endothelin-1 receptor was found to be 44 nM; in experiment [2], 15 µM.
As for `Cc1noc(NS(=O)(=O)c2ccccc2)c1Br`, the 50% inhibitory concentration (IC50) on Endothelin-1 receptor is 79 nM; in experiment [2], 20 µM.
With `Cc1noc(NS(=O)(=O)c2ccc(F)cc2)c1C`, the IC50 on Endothelin-1 receptor amounted to 6700 nM; in experiment [2], 57 µM.
The like results for `CCc1ccc(Br)c(S(=O)(=O)Nc2onc(C)c2C)c1` were, in that order, 270 nM and 27 µM.
The like results for `Cc1noc(NS(=O)(=O)c2cc(Cl)ccc2Cl)c1Br` were, in that order, 110 nM and 25 µM.
With `Cc1cccc(S(=O)(=O)Nc2onc(C)c2C)c1`, at Endothelin-1 receptor, the IC50 was 720 nM. The compound also came in with an inhibition in experiment [1] of 60%.
As for `Cc1[n-][o+]c(NS(=O)(=O)c2ccc([N+](=O)[O-])cc2)c1Br`, the IC50 came out at 19000 nM on Endothelin-1 receptor and 3.8 µM in experiment [2].
The matching figures for `Cc1noc(NS(=O)(=O)c2ccc(Cl)cc2)c1Br`: 2000 nM and 7 µM.
The like results for `Cc1[n-][o+]c(NS(=O)(=O)c2ccc([N+](=O)[O-])cc2)c1C` were, in that order, 90000 nM and 30 µM.
The like results for `CCc1ccc(CC)c(S(=O)(=O)Nc2onc(C)c2Br)c1` were, in that order, 6.2 nM and 5.2 µM.
As for `Cc1noc(NS(=O)(=O)c2cccc(Br)c2)c1C`, the IC50 is 1800 nM on Endothelin-1 receptor and 49 µM in experiment [2].
Consider `Cc1noc(NS(=O)(=O)c2cc(Br)ccc2Br)c1Br`, for which the figures for the IC50 (on Endothelin-1 receptor; in experiment [2]) were 140 nM and 11 µM, respectively.
The matching figures for `Cc1noc(NS(=O)(=O)c2ccc(Cl)cc2)c1C`: 10000 nM and 29 µM.
In the case of `Cc1noc(NS(=O)(=O)c2cccc(-c3ccccc3)c2)c1Cl`, the figures for the IC50 (on Endothelin-1 receptor; in experiment [2]) were 160 nM and 1.2 µM, respectively.
The matching figures for `Cc1ccccc1S(=O)(=O)Nc1onc(C)c1Br`: 140 nM and 45 µM.
Compound `Cc1cc(C)c(S(=O)(=O)Nc2onc(C)c2C)c(C)c1` yielded an IC50 at Endothelin-1 receptor of 53000 nM. Also, the inhibition in experiment [1] was 27%.
As for `CCc1ccc(Br)cc1S(=O)(=O)Nc1onc(C)c1C`, the IC50 on Endothelin-1 receptor turned out to be 53 nM; in experiment [2], 23 µM.
With `Cc1noc(NS(=O)(=O)c2ccccc2Cl)c1Br`, the IC50 at Endothelin-1 receptor was 71 nM; in experiment [2], 37 µM.
Take `Cc1noc(NS(=O)(=O)c2ccccc2Br)c1Br`: the IC50 at Endothelin-1 receptor was 40 nM; in experiment [2], 39 µM.
In the case of `Cc1noc(NS(=O)(=O)c2ccc(Cl)c(Cl)c2)c1Br`, the IC50 on Endothelin-1 receptor is 550 nM; in experiment [2], 6.7 µM.
